Results: patent US20160310584A1, “FORMULATIONS FOR NEOPLASIA VACCINES” (THE BROAD INSTITUTE INC., priority 2013, published 2016)
Where two headings read alike, the source gives them in different places. Where a SMILES comes first, the peptide text is derived from it. Where no end group is shown, it is not given here.

Key:
Assay type in all cases: physicochemical
[1] = pH of peptide solutions
Procedure: (§1) In a representative procedure, peptides were weighed and corrected for % peptide content, and then dissolved in DMSO to a concentration of 50 mg/mL. The DMSO/Peptide solution was then diluted with 5 mM sodium succinate in D5W to a 2 mg/mL peptide concentration.

[2] = Peptide solubility evaluation: dissolution in DMSO, dilution in D5W with or without succinate
Procedure: as §1
Additional peptide solubility conditions were tested. Peptides CS6709, CS6712, CS6720, CS6726, and CS6783 were weighed at approximately 10 mg each. The peptides were then dissolved in approximately 200 μL USP grade DMSO to obtain a 50 mg/mL concentration for each peptide. […] Additional 50 μL increments of DMSO were added to Peptide CS6709 up to 400 μL; for a total of 600 μL of DMSO.
Based on gross weight and peptide content, 15 mg (net weight) or slightly more of each individual peptide are weighed and 100% USP Grade DMSO […] is added to achieve a final peptide concentration of 50 mg/ml.

[3] = Dissolution of peptide in D5W without using DMSO; conditions: small amount of peptide (<1 mg)
[4] = DMSO/D5W, Table 4, Y/N, diluted to 2 mg/ml, read-out: Solubility In DMSO/D5W
[5] = DMSO/D5W/succinate, Table 4, Y/N, read-out: Solubility in DMSO/D5W/Succinate
[6] = Table 4, symbol X not defined, peptides dissolved at 50 mg/ml in 100% DMSO, read-out: Solubility in DMSO
[7] = Table 4, Y/N, diluted to 2 mg/ml, read-out: Solubility In DMSO/D5W

H-LPVFIGNIAVNHAPVSLRPGLGLPPGAPPGTVP-OH [CS7438]
pH of peptides in DMSO/D5W/5 mM S. Succinate spike [1]: 6.78
pH of peptides in DMSO/D5W/5 mM Succinate and Hiltonol [1]: 6.96

H-FRLIWRSVKNGKSSREQELSWNCSHQVPSLGA-OH [CS6917]
solubility [2, 4]: > 2000 µg/mL

H-LRVFIGNIAVNHAPVSLRPGLGLPPGAPPGTVP-OH [CS7412]
solubility [2]: > 2000 µg/mL
pH of peptides in DMSO/D5W/5 mM S. Succinate spike [1]: 6.61
pH of peptides in DMSO/D5W/5 mM Succinate and Hiltonol [1]: 6.96

H-EPDQEAVQSSTYKDCNTLHLPTERFSPVR-OH [CS6710]
solubility [2, 4]: > 2000 µg/mL

H-AESAQRQGPNGGGEQSANEF-OH [CS7416]
pH of peptides in DMSO/D5W/5 mM S. Succinate spike [1]: 6.31
pH of peptides in DMSO/D5W/5 mM Succinate and Hiltonol [1]: 6.54

CC[C@H](C)[C@H](NC(=O)[C@H](CS)NC(=O)[C@H](CC(C)C)NC(=O)[C@@H](N)CC(=O)O)C(=O)N[C@@H](CS)C(=O)N1CCC[C@H]1C(=O)N[C@@H](CCCNC(=N)N)C(=O)N[C@@H](CO)C(=O)N[C@@H](Cc1c[nH]cn1)C(=O)N[C@@H](CCCNC(=N)N)C(=O)NCC(=O)N[C@@H](C)C(=O)N[C@@H](Cc1ccccc1)C(=O)N[C@@H](CCC(N)=O)C(=O)N[C@@H](CC(C)C)C(=O)N[C@@H](CC(C)C)C(=O)N1CCC[C@H]1C(=O)N[C@@H](CO)C(=O)N[C@@H](C)C(=O)N[C@@H](CC(C)C)C(=O)N[C@@H](CC(C)C)C(=O)N[C@H](C(=O)N[C@@H](CCCNC(=N)N)C(=O)N[C@H](C(=O)N[C@@H](CC(C)C)C(=O)N[C@@H](CCC(=O)O)C(=O)NCC(=O)N[C@@H](CO)C(=O)N[C@@H](CC(=O)O)C(=O)N[C@@H](CO)C(=O)O)C(C)C)C(C)C [CS6932] (H-DLCICPRSHRGAFQLLPSALLVRVLEGSDS-OH)
solubility [2, 4]: > 2000 µg/mL

H-LLTDRNTSGTTFTLLGVSDYPELQVPIPQAGLG-OH [CS7408]
solubility [2]: > 2000 µg/mL
solubility [2, 5]: > 2000 µg/mL
pH of peptides in DMSO/D5W/5 mM S. Succinate spike [1]: 6.31
pH of peptides in DMSO/D5W/5 mM Succinate and Hiltonol [1]: 6.75

H-LTDLPGRIRVAPQQNDLDSPQQISISNAE-OH [CS6709]
solubility [2, 6]: < 50000 µg/mL
Dissolution directly in D5W without using DMSO [3]: could be dissolved

H-LSVPFTCGVNFGDSIEDLEI-OH [CS7428]
solubility [2, 4]: < 2000 µg/mL

H-SGQPAPEETVLFLGLLHGLLLILRRLRGG-OH [CS6937]
solubility [2]: > 2000 µg/mL
pH of peptides in DMSO/D5W/5 mM S. Succinate spike [1]: 6.51
pH of peptides in DMSO/D5W/5 mM Succinate and Hiltonol [1]: 6.76

H-IGALNPKRAAFFAEHYESWE-OH [CS7420]
solubility [2]: > 2000 µg/mL
pH of peptides in DMSO/D5W/5 mM S. Succinate spike [1]: 6.38
pH of peptides in DMSO/D5W/5 mM Succinate and Hiltonol [1]: 6.56

H-PLMQTELHQLVPEADPEEMA-OH [CS7430]
pH of peptides in DMSO/D5W/5 mM S. Succinate spike [1]: 6.23
pH of peptides in DMSO/D5W/5 mM Succinate and Hiltonol [1]: 6.37

H-SKLPYPVAKSGKRALARGPAPTEKTPHSGAQLG-OH [CS6719]
solubility [2, 4]: > 2000 µg/mL

H-LAASGLHGSAWLVPGEQPVSGPHHGKQPAGV-OH [CS6930]
solubility [2, 4]: > 2000 µg/mL

H-GTYLQGTASALSQSQERPPSVNRVPPSSPSSQE-OH [CS6725]
solubility [2, 4]: > 2000 µg/mL

H-GASRRSSASQGAGSLGLSEEKTLRSGGGP-OH [CS6781]
solubility [2, 4]: > 2000 µg/mL

H-GLLSDGSGLGQITWASAEHLQRPGAGAELA-OH [CS6914]
solubility [2, 4]: > 2000 µg/mL

H-YLLPKTAVVLRCPALRVRKP-OH [CS7418]
pH of peptides in DMSO/D5W/5 mM S. Succinate spike [1]: 6.76
pH of peptides in DMSO/D5W/5 mM Succinate and Hiltonol [1]: 6.96

H-SPTEPSTKLPGFDSCGNTEIAERKIKRIYGGFK-OH [CS6720]
solubility [2, 4]: > 2000 µg/mL
Dissolution directly in D5W without using DMSO [3]: could be dissolved

H-VQLSIQDVIRRARLSTVPTAQRVALRSGWI-OH [CS7413]
pH of peptides in DMSO/D5W/5 mM S. Succinate spike [1]: 6.73
pH of peptides in DMSO/D5W/5 mM Succinate and Hiltonol [1]: 7.02

H-SYKKLPLLIFPSHRRAPLLSATGDRGFSV-OH [CS6936]
solubility [2, 7]: > 2000 µg/mL

H-SYDSVIRELLQKPNVRVVVL-OH [CS7425]
solubility [2, 5]: < 2000 µg/mL
solubility [2, 4]: > 2000 µg/mL
solubility [2, 6]: < 50000 µg/mL
pH of peptides in DMSO/D5W/5 mM S. Succinate spike [1]: 6.44
pH of peptides in DMSO/D5W/5 mM Succinate and Hiltonol [1]: 6.65

H-GKSRGQQAQDRARHAAGAAPARPLGALREQ-OH [CS6938]
solubility [2, 4]: > 2000 µg/mL

H-AHRQGEKQHLLPVFSRLALRLPWRHSVQL-OH [CS6941]
pH of peptides in DMSO/D5W/5 mM S. Succinate spike [1]: 6.49
pH of peptides in DMSO/D5W/5 mM Succinate and Hiltonol [1]: 6.78

H-VSWGKKVQPIDSILADWNEDIEAFEMMEKD-OH [CS6942]
solubility [2, 4]: < 2000 µg/mL

H-APALGPGAASVASRCGLDPALAPGGSHMLRA-OH [CS6927]
solubility [2, 4]: > 2000 µg/mL

H-PQLAGGGGSGAPGEHPLLPGGAPLPAGLF-OH [CS6716]
solubility [2, 4]: > 2000 µg/mL

H-SHVEKAHITAESAQRQGPNGGGEQSANEF-OH [CS6708]
solubility [2, 4]: > 2000 µg/mL

H-DSAVDKGHPNRSALSLTPGLRIGPSGIPQAGLG-OH [CS6726]
solubility [2, 4]: > 2000 µg/mL
Dissolution directly in D5W without using DMSO [3]: could be dissolved

KGASLDAGWGSPRWTTTRMTSASAGRSTRA [CS7414]
Solubility in DMSO/D5W/Succinate [2]: Y
pH of peptides in DMSO/D5W/5 mM S. Succinate spike [1]: 6.71
pH of peptides in DMSO/D5W/5 mM Succinate and Hiltonol [1]: 6.99

H-KKEKAEKLEKERQRHISKPLLGGPFSLTTHTGE-OH [CS6718]
solubility [2, 4]: > 2000 µg/mL

H-DASDFLPDTQLFPHFTELLLPLDPLEGSSV-OH [CS6935]
solubility [2, 4]: < 2000 µg/mL

H-PIQVFYTKQPQNDYLHVALVSVFQIHQEAPSSQ-OH [CS6729]
solubility [2, 4]: > 2000 µg/mL

H-EEGLLPEVFGAGVPLALCPAVPSAAKPHRPRVL-OH [CS6933]
solubility [2, 4]: > 2000 µg/mL

H-VAGLAASGLHGSAWLVPGEQPVSGPHHGKQ-OH [CS6931]
pH of peptides in DMSO/D5W/5 mM S. Succinate spike [1]: 6.42
pH of peptides in DMSO/D5W/5 mM Succinate and Hiltonol [1]: 6.66

H-DSAVDKGHPNRSALSLTPGLRIGPSGLFLVFLA-OH [CS7411]
pH of peptides in DMSO/D5W/5 mM S. Succinate spike [1]: 6.53
pH of peptides in DMSO/D5W/5 mM Succinate and Hiltonol [1]: 6.94

H-PIERVKKNLLKKEYNVSDDSMKLGGNNTSEKAD-OH [CS6721]
solubility [2, 4]: > 2000 µg/mL

H-EDLHLLSVPCPSYKKLPLLIFPSHRRAPLLSA-OH [CS6918]
solubility [2, 7]: > 2000 µg/mL

H-KKNITNLSRLVVRPDTDAVY-OH [CS7431]
pH of peptides in DMSO/D5W/5 mM S. Succinate spike [1]: 6.45
pH of peptides in DMSO/D5W/5 mM Succinate and Hiltonol [1]: 6.69

H-AESAQRQGPLGGGEQSANEF-OH [CS7417]
solubility [2]: > 2000 µg/mL
solubility [2, 5]: > 2000 µg/mL
pH of peptides in DMSO/D5W/5 mM S. Succinate spike [1]: 6.28
pH of peptides in DMSO/D5W/5 mM Succinate and Hiltonol [1]: 6.5

H-WDGPPENDMLLKEICGSLIP-OH [CS7432]
pH of peptides in DMSO/D5W/5 mM S. Succinate spike [1]: 6.22
pH of peptides in DMSO/D5W/5 mM Succinate and Hiltonol [1]: 6.45

H-PPYPYSSPSLVLPTEPHTPKSLQQPGLPS-OH [CS6715]
solubility [2, 4]: > 2000 µg/mL

H-LPVFIGNIAVNHAPVSLRPGLGLPPGAPPLVVP-OH [CS6730]
solubility [2, 4]: > 2000 µg/mL

H-GTKALQLHSIAGRWPRMEPWVVESMSLGVP-OH [CS7415]
pH of peptides in DMSO/D5W/5 mM S. Succinate spike [1]: 6.61
pH of peptides in DMSO/D5W/5 mM Succinate and Hiltonol [1]: 6.81

H-LLTDRNTSGTTFTLLGVSDYPELQVP-OH [CS7409]
solubility [2]: > 2000 µg/mL
solubility [2, 5]: > 2000 µg/mL
pH of peptides in DMSO/D5W/5 mM S. Succinate spike [1]: 6.32
pH of peptides in DMSO/D5W/5 mM Succinate and Hiltonol [1]: 6.62

H-RGLHSQGLGRGRIAMAQTAGVLRSLEQEE-OH [CS6711]
solubility [2, 4]: > 2000 µg/mL

H-KPKKVAGAATPKKSIKRTPKKVKKPATAAGTKK-OH [CS6717]
solubility [2, 4]: > 2000 µg/mL

H-DMAWRRNSRLYWLIKMVEQWQEQHLPSLSS-OH [CS6943]
solubility [2, 4]: > 2000 µg/mL

H-VEQGHVRVGPDVVTHPAFLV-OH [CS7427]
pH of peptides in DMSO/D5W/5 mM S. Succinate spike [1]: 6.34
pH of peptides in DMSO/D5W/5 mM Succinate and Hiltonol [1]: 6.52

H-LKDSNSWPPSNKRGFDTEDAHKSNATPVP-OH [CS6712]
Dissolution directly in D5W without using DMSO [3]: could be dissolved

H-ALSLTPGLRIGPSGLFLVFLAESAVDKGHPNRS-OH [CS7410]
pH of peptides in DMSO/D5W/5 mM S. Succinate spike [1]: 6.46
pH of peptides in DMSO/D5W/5 mM Succinate and Hiltonol [1]: 6.88
